Patent US9000191B2, “Serotonin reuptake inhibitors” (Theravance Biopharma R&D IP, LLC, priority 2010, dated 2015)

What was measured:
[1] = target: T1, hSERT (Homo sapiens, UniProt P31645); experiment: hSERT neurotransmitter uptake assay; type: cell-based; settings: serotonin reuptake inhibition, HEK293-hSERT cells; read-out: SERT pIC50 (converted)
T1 construct: expressed in transfected cells; host or cells: HEK293 (stably transfected, G418 selection)
Experimental: Neurotransmitter uptake assays were used to measure inhibition of ^3H-serotonin (^3H-5-HT) uptake into cells expressing hSERT in order to determine the pIC50 values of test compounds at the transporter, similar to the procedures described in Tsuruda et al. (2010) Journal of Pharmacological and Toxicological Methods 61(2):192-204.
HEK293 cells stably-transfected with human recombinant SERT (HEK293-hSERT) were grown in DMEM medium supplemented with 10% dialyzed fetal bovine serum, 100 μg/ml penicillin, 100 μg/ml streptomycin, 2 mM L-glutamine, and 250 μg/ml of the aminoglycoside antibiotic G418. Cells were incubated in a 5% CO2, humidified incubator at 37° C.
The neurotransmitter uptake assay was performed in a 96-well assay plate in a total volume of 100 μL assay buffer containing HEK293-hSERT cells (7500-10,000 cells/well; plated ˜2 hours prior to assay initiation. Neurotransmitter Transporter Uptake Assay dye (0.5 μM), and eleven different concentrations of compound ranging from 10 μM to […] was used. Non-specific uptake was determined in the presence of indatraline (2.5 μM). The final assay buffer was 12.5 mM Tris-HCl, 5 mM HEPES, 3 mM NaHCO3, 0.3 mM KH2PO4, 0.25 mM Na2HPO4, 130 mM NaCl, 5 mM KCl, 1 mM CaCl2, 0.4 mM MgCl2, 0.3 mM MgSO4, 4 mM D-glucose, 0.025% BSA, 0.1 mM ascorbic acid, pH 7.4.
In pre-incubation studies, test compound was added to cells for 30 minutes at 37° C. prior to the addition of fluorescent substrate. For determination of inhibitory potency, a 10-30 minute endpoint substrate accumulation was determined by fluorescence spectroscopy using a Safire (Tecan Group Ltd., Minnendorf, Switzerland) and analysis was performed as described in Tsuruda et al., supra. For real-time measurements, compounds were either preincubated (as above) or mixed with substrate prior to addition, and kinetic measurements, relative fluorescence units (RFU integrated over 0.5 ms), were made using a cycle time of 1 min.

[2] = Peripheral selectivity (Assay 4): free plasma versus free brain exposure after oral dosing; type: in vivo; settings: fed male Sprague-Dawley rats, 0.5-24 hours post-dose, unbound fractions by equilibrium dialysis
Experimental: Fed male Sprague-Dawley rats (n=1/timepoint) were dosed orally with a test compound. Blood (via cardiocentesis), cerebrospinal fluid (CSF) (via cisternae magna) and brain were collected from an animal at 0.5, 1, 2, 4, 8 and 24 hours post-dose. Total plasma, CSF and brain concentrations were determined by LC-MS/MS. The pharmacokinetic parameters were assessed by non-compartmental methods using WinNonlin (Version 5.3, Pharsight, Mountain View, Calif.). The unbound fraction in plasma and brain was determined by equilibrium dialysis. Free plasma and free brain concentrations were determined by multiplying the total concentration in plasma or brain by its respective unbound fraction. CSF was assumed to be unbound, due to the absence of protein. Peripheral selectivity was assessed by comparing the unbound exposures (Cmax and AUC) in free plasma versus CSF and/or free brain.

T1 sequence (P31645 whole entry): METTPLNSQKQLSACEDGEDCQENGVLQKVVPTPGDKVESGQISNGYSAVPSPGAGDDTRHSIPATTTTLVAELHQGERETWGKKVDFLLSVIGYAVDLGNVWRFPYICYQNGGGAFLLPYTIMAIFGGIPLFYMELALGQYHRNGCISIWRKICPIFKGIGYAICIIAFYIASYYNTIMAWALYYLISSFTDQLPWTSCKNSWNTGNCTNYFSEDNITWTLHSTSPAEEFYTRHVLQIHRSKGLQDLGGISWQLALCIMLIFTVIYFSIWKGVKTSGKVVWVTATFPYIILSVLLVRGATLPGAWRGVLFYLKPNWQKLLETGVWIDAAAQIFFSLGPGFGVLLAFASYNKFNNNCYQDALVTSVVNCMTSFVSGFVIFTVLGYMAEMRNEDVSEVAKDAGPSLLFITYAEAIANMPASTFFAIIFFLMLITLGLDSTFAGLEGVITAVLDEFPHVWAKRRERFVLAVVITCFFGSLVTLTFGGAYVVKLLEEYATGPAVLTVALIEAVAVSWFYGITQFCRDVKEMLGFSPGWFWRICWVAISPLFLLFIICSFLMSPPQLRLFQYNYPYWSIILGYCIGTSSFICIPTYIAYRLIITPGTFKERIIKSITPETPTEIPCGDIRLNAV

Row | Structure (SMILES) | IC50 [1] [nM] | Free plasma AUC/Free brain AUC [2]
1 | CS(=O)(=O)C[C@@H](Oc1ccc(C(F)(F)F)cc1)[C@H]1CCNC1 [Example 1, (S)-3-[(S)-2-Methanesulfonyl-1-(4-trifluoromethylphenoxy)ethyl]pyrrolidine] | ≤ 10 | >70
2 | CS(=O)(=O)C[C@@H](Oc1ccc([N+](=O)[O-])cc1)[C@@H]1CCNC1 [Example 2-7, (R)-3-[(S)-2-Methanesulfonyl-1-(4-nitro-phenoxy)ethyl]pyrrolidine] | ≤ 100 | >20
3 | CS(=O)(=O)C[C@H](Oc1ccc([N+](=O)[O-])cc1)[C@@H]1CCNC1 [Example 2-8, (R)-3-[(R)-2-Methanesulfonyl-1-(4-nitro-phenoxy)ethyl]pyrrolidine] | ≤ 100 | >10
4 | CS(=O)(=O)C[C@@H](Oc1ccc(C(F)(F)F)cn1)[C@@H]1CCNC1 [Example 3] | ≤ 100 | >20
5 | O=S(=O)(CCC(Oc1ccc(C(F)(F)F)cc1)[C@H]1CCNC1)c1ccccc1 (stereo partly drawn) [Example 7, (S)-3-[3-Benzenesulfonyl-1-(4-trifluoromethylphenoxy)propyl]pyrrolidine] | ≤ 10 | 
